B1: VTN: vitronectin, first coating matrix that supports cell adhesion (protein, UniProt P04004 20-478, looked up)
Vitronectin: DQESCKGRCTEGFNVDKKCQCDELCSYYQSCCTDYTAECKPQVTRGDVFTMPEDEYTVYDDGEEKNNATVHEQVGGPSLTSDLQAQSKGNPEQTPVLKPEEEAPAPEVGASKPEGIDSRPETLHPGRPQPPAEEELCSGKPFDAFTDLKNGSLFAFRGQYCYELDEKAVRPGYPKLIRDVWGIEGPIDAAFTRINCQGKTYLFKGSQYWRFEDGVLDPDYPRNISDGFDGIPDNVDAALALPAHSYSGRERVYFFKGKQYWEYQFQHQPSQEECEGSSLSAVFEHFAMMQRDSWEDIFELLFWGRTSAGTRQPQFISRDWHGVPGQVDAAMAGRIYISGMAPRPSLAKKQRFRHRNRKGYRSQRGHSRGRNQNSRRPSRATWLSLFSSEESNLGANNYDDYRMDWLVPATCEPIQSVFFFSGDKYYRVNLRTRRVDTVDPPYPRSIAQYWLGCPAPGHL

Legend:
Format in all cases: cell-based, human
imDAPs [1] = experiment: imDAP expansion, cell morphology (bright-field); settings: for attachment and morphology of imDAPs on coated surface (FIG. 4A): coating 1 μg/cm^2 each, day 4, Example 8 expansion medium
Procedure: imDAPs were produced according to the method described in CN201910169525.0. The imDAPs (P0) were seeded on VTN-coated plates (1 μg/cm^2) at a density of 1×10^5 cells/cm^2 in the expansion medium (50% DMEM/F12, 50% Neurobasal™ medium, 1% (v/v) Glutamax, 2% (v/v) B27 (50×), 0.2 μM LDN193189, 3 μM CHIR99021, 100 ng/mL FGF8b) in the absence or presence of 5 μM Blebbistatin. In case where Blebbistatin is present, Blebbistatin was either removed 24 hrs after plating or present throughout the culture period. The medium was changed every day for 5 days.
imDAPs were produced according to the method described in CN201910169525.0. The imDAPs (P0) were seeded on VTN-coated plates (1 μg/cm^2) at a density of 1×10^5 cells/cm^2 in the expansion medium (50% DMEM/F12, 50% Neurobasal™ medium, 1% (v/v) Glutamax, 2% (v/v) B27 (50×), 3 μM CHIR99021, 100 ng/mL FGF8b, 5 μM Blebbistatin) in the absence or presence of 0.2 μM LDN193189. The medium was changed every day for 5 days.
(§1) imDAPs were produced according to the method described in CN201910169525.0. The imDAPs (P0) were seeded on DLL4-coated (1 μg/cm^2), VTN-coated (1 μg/cm^2) and DLL4/VTN-coated (1 μg/cm^2 for each) plates at a low density of 1×10^4 cells/cm^2 respectively, and cultured in the expansion medium in the absence or presence of 5 μM SB431542. Medium was replaced every 3rd day until reaching 100% confluence (6 days) for cell collection. The typical cell morphology on day 4 was recorded (FIG. 4A). The cell number of each group was counted by Vi-cell cytometer (FIG. 4B). The cells of each group were stained with Foxa2-PE antibody (BD, #561589), the percentage of Foxa2+ imDAPs were analyzed by flow cytometry (FIG. 4C). The expansion medium used in this example contained the following components: 50% DMEM/F12, 50% Neurobasal™ medium, 1% (v/v) Glutamax, 1% (v/v) B27, 50 μg/ml ascorbic acid, 0.2 μM LDN193189, 100 ng/ml FGF8b, 3 μM CHIR99021 and 10 µM Y27632.
(§2) imDAPs were produced according to the method described in CN201910169525.0. The imDAPs (P0) were seeded on DLL4/VTN-coated (1 μg/cm^2 for each) plates at a low density of 1×10^4 cells/cm^2, and cultured in the expansion medium (EM1, EM2, EM3, EM4). Medium was replaced every 3rd day until reaching 100% confluence (6 days) for cell collection. EM1 used in Example 9 contained the following components: 50% DMEM/F12, 50% Neurobasal™ medium, 1% (v/v) Glutamax, 1% (v/v) B27 (50×), 50 μg/ml ascorbic acid, 3 μM CHIR99021, 5 μM SB431542 and 10 μM Y27632. EM2 used in Example 9 contained the following components: 50% DMEM/F12, 50% Neurobasal™ medium, 1% (v/v) Glutamax, 1% (v/v) B27 (50×), 50 μg/ml ascorbic acid, 0.2 μM LDN193189, 3 μM CHIR99021, 5 μM SB431542 and 10 μM Y27632. EM3 used in Example 9 contained the following components: 50% DMEM/F12, 50% Neurobasal™ medium, 1% (v/v) Glutamax, 1% (v/v) B27 (50×), 50 μg/mL ascorbic acid, 0.2 μM LDN193189, 100 ng/ml FGF8b, 3 μM CHIR99021, 5 μM SB431542 and 10 μM Y27632. EM4 used in Example 9 contained the following components: 50% DMEM/F12, 50% Neurobasal™ medium, 1% (v/v) Glutamax, 1% (v/v) B27 (50×), 50 μg/ml ascorbic acid, 0.2 μM LDN193189, 10 ng/ml FGF2, 3 μM CHIR99021, 5 μM SB431542 and 10 μM Y27632.

imDAPs [2] = experiment: imDAP expansion efficiency (cell number, expansion fold, Population Doubling Time); settings: DLL4/VTN-coated; for imDAP expansion, overall conclusion of Example 9: added to CHIR99021/SB431542/Y27632 medium
Procedure: imDAPs were produced according to the method described in CN201910169525.0. The imDAPs (P0) were seeded on VTN-coated plates (1 μg/cm^2) at a density of 1×10^5cells/cm^2 in the expansion medium (50% DMEM/F12, 50% Neurobasal™ medium, 1% (v/v) Glutamax, 2% (v/v) B27 (50×), 0.2 μM LDN193189, 3 μM CHIR99021, 100 ng/mL FGF8b, 5 μM Blebbistatin). The medium was changed every day. When imDAPs reach 100% confluence (4-5 days), cells were passaged enzymatically with 1× TrypLE, centrifuged at 250 g for 5 minutes, counted and replaced on new VTN-coated plates (1 μg/cm^2) at a density of 1×10^5 cells/cm^2 in the expansion medium. imDAPs were continuously expanded for 6 passages. At each passage, imDAPs were harvested at an expansion fold 5˜10 (over the initial number of imDAPs plated).
as §1, with “The expansion medium used in this example contained the following components: 50% DMEM/F12, 50% Neurobasal™ medium, 1% (v/v) Glutamax, 1% (v/v) B27, 50 μg/ml ascorbic acid, 0.2 μM LDN193189, 100 ng/ml FGF8b, 3 μM CHIR99021 and 10 µM Y27632.” left out
imDAPs were produced according to the method described in CN201910169525.0. […] Medium was replaced every 3rd day until reaching 100% confluence (6 days) for cell passaging. imDAPs were passaged enzymatically with 1× TrypLE, centrifuged at 250 g for 5 minutes, counted and plated on new DLL4/VTN-coated plates at a density of 1×10^4 cells/cm^2 in the expansion medium. imDAPs were expanded and maintained in the expansion medium for 6 passages. […]

imDAPs [3] = experiment: Flow cytometry analysis of FOXA2 expression in expanded imDAPs; settings: for FOXA2 expression, FACS (FIG. 4C): VTN or DLL4+VTN coating, with or without 5 μM SB431542, 6 days
Procedure: 1. Individualize and collect cells by either Accutase or TrypLE treatment.
2. Wash cells with 1 ml PBS and pellet cells at 250×g for 15 sec.
3. Remove supernatant, add ˜200 μl of 4% PFA, mix and fix for 10 min at RT.
4. Pellet cells at 350×g for 5 min.
5. Wash cells by 1 ml of FACS buffer and pellet cells at 350×g for 5 min.
6. Remove supernatant, add 200 μl/tube of FACS buffer/0.1% TritonX, mix for 10 min at RT.
7. Wash cells by 1 ml of FACS buffer and pellet cells at 350×g for 5 min.
8. Remove supernatant, add 200 μl/tube of primary antibody diluted in FACS buffer, mix gently, and incubate for 30 min at RT.
9. Wash cells by 1 ml of FACS buffer and pellet cells at 350×g for 5 min.
10. Remove supernatant, and add 200 μl of secondary antibody diluted in FACS buffer, mix gently, and incubate for 30 min at RT.
11. Wash cells by 1 ml of FACS buffer and pellet cells at 300×g for 5 min.
12. Remove supernatant, add 200 μl of FACS buffer, and run samples on the flow cytometry.
imDAPs were produced according to the method described in CN201910169525.0. The imDAPs (P0) were seeded on VTN-coated plates (1 μg/cm^2) at a low density of 1×10^4 cells/cm^2, and cultured in the expansion medium (50% DMEM/F12, 50% Neurobasal™ medium, 1% (v/v) Glutamax, 2% (v/v) B27 (50×), 0.2 μM LDN193189, 3 μM CHIR99021, 100 ng/mL FGF8b) with either 5 μM Blebbistatin or 10 μM Y27632. Medium was replaced every 3rd day. At Day 6, cells were collected for FACS analysis.
as §1
as §2, with “EM4 used in Example 9 contained the following components: 50% DMEM/F12, 50% Neurobasal™ medium, 1% (v/v) Glutamax, 1% (v/v) B27 (50×), 50 μg/ml ascorbic acid, 0.2 μM LDN193189, 10 ng/ml FGF2, 3 μM CHIR99021, 5 μM SB431542 and 10 μM Y27632.” left out

Molecule	imDAP expansion, overall conclusion of Example 9 (imDAPs [2])	FOXA2 expression, FACS (FIG. 4C) (imDAPs [3])	attachment and morphology of imDAPs on coated surface (FIG. 4A) (imDAPs [1])	further results
Cc1ccc2c(c1)C(=O)C1(O)CCN(c3ccccc3)C1=N2 (centres unmarked) [Blebbistatin]				imDAP expansion (cell morphology, FIG. 1A) (imDAPs [1]; 5 μM Blebbistatin throughout culture vs absent or removed 24 hrs after plating, VTN-coated plates, 5 days, P0 imDAPs): supported better imDAP expansion
c1ccc2c(-c3cnn4cc(-c5ccc(N6CCNCC6)cc5)cnc34)ccnc2c1 [LDN193189]	had no additional effects on imDAP expansion			cell morphology of expanded imDAPs (FIG. 1B) (imDAPs [1]; absence vs presence of 0.2 μM LDN193189, VTN-coated, 5 days): imDAPs cultured without LDN193189 showed more flattened morphology; cell number during expansion (FIG. 5B) (imDAPs [2]; adding 0.2 μM LDN193189 and/or 100 ng/ml FGF8b to CHIR99021/SB431542/Y27632 medium, 6 days): had no additional effect on increasing the cell number; expression of FOXA2 for imDAPs, flow cytometry (FIG. 5C) (imDAPs [3]; addition of 100 ng/ml FGF8b and/or 0.2 μM LDN193189, DLL4/VTN-coated, P1 cells): slightly decreased the expression of FOXA2
NC(=O)c1ccc(-c2nc(-c3ccc4c(c3)OCO4)c(-c3ccccn3)[nH]2)cc1 [SB431542]		could improve FOXA2 expression		
DLL4: Notch agonist Delta-Like 4, used as coating matrix		could improve FOXA2 expression	could not support the attachment of imDAPs	
FGF2: fibroblast growth factor	had no additional effects on imDAP expansion			cell morphology on day 5 (FIG. 5A) (imDAPs [1]; 10 ng/ml FGF2 (with 0.2 μM LDN193189) in expansion medium EM4, DLL4/VTN-coated): some obvious heterogeneous cells were observed
B1			flattened morphology	

From patent publication US20240327787A1, “CULTURE MEDIUM, COATING MATRIX AND METHOD FOR EXPANDING MIDBRAIN DOPAMINERGIC PROGENITOR CELLS” (NUWACELL BIOTECHNOLOGIES CO., LTD., priority 2022, published 2024)
